From patent US6274715A, “Tricyclic erythromycin derivatives” (priority 1997, dated 2001)
≈ marks a conversion by molar mass, not a printed value.

What was measured:
Assay type in all cases: cell-based
[1] = system: PSEUDOMONAS AERUGINOSA DPHD-5263; assay: In vitro antibacterial activity, MIC, BHI agar dilution; conditions: P. aeruginosa DPHD-5263, unit assumed
[2] = system: STAPHYLOCOCCUS AUREUS 1775; assay: as above; conditions: S. aureus 1775, unit assumed
[3] = system: STR[…] 508; assay: as above; conditions: S. agalactiae CMX 508, unit assumed
In short: (§1)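 MIC was read visually as the lowest drug concentration showing no growth, a slight haze or sparsely isolated colonies relative to a compound-free BHI plate. Plates held serial aqueous dilutions in BHI agar, were spot-inoculated with 1:100 (or 1:10) culture dilutions and incubated 20 to 24 hours at 35-37° C.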

[4] = system: M[…] ATCC 9341; assay: as above; conditions: M. luteus ATCC 9341, unit assumed
In short: as §1

[5] = system: EN[…] ATCC 8043; assay: as above; conditions: E. faecium ATCC 8043, unit assumed
In short: as §1

[6] = system: M[…] ATCC 4698; assay: as above; conditions: M. luteus ATCC 4698, unit assumed
In short: as §1

[7] = system: PROVIDENCIA STUARTII CMX 640; conditions: P. stuartii CMX 640; BHI agar; unit assumed
[8] = system: STAPHYLOCOCCUS AUREUS CMX 553; assay: In vitro antibacterial activity, MIC, BHI agar dilution; conditions: S. aureus CMX 553, unit assumed
[9] = system: STREPTOCOCCUS PYOGENES EES61; assay: as above; conditions: S. pyogenes EES61, unit assumed
[10] = system: STREPTOCOCCUS PYOGENES 930; assay: as above; conditions: S. pyogenes 930, unit assumed
[11] = system: KLEBSIELLA PNEUMONIAE ATCC 8045; assay: as above; conditions: K. pneumoniae ATCC 8045, unit assumed
[12] = system: STREPTOCOCCUS BOVIS A-5169; assay: as above; conditions: S. bovis A-5169, unit assumed
[13] = system: PSEUDOMONAS AERUGINOSA DPHD-2862; assay: as above; conditions: P. aeruginosa DPHD-2862, unit assumed
[14] = system: PSEUDOMONAS AERUGINOSA BMH10; assay: as above; conditions: P. aeruginosa BMH10, unit assumed
[15] = system: PSEUDOMONAS AERUGINOSA 5007; assay: as above; conditions: P. aeruginosa 5007, unit assumed
[16] = system: STAPHYLOCOCCUS AUREUS A5177; assay: as above; conditions: S. aureus A5177, unit assumed
[17] = system: ESCHERICHIA COLI H560; assay: as above; conditions: E. coli H560, unit assumed
[18] = system: ESCHERICHIA COLI DC-2; assay: as above; conditions: E. coli DC-2, unit assumed
[19] = system: ESCHERICHIA COLI KNK 437; conditions: E. coli KNK 437; BHI agar; unit assumed
[20] = system: STAPHYLOCOCCUS AUREUS NCTC10649M; assay: In vitro antibacterial activity, MIC, BHI agar dilution; conditions: S. aureus NCTC10649M, unit assumed
[21] = system: STAPHYLOCOCCUS AUREUS A-5278; assay: as above; conditions: S. aureus A-5278, unit assumed
[22] = system: ESCHERICHIA COLI JUHL; conditions: E. coli JUHL; BHI agar; unit assumed
[23] = system: ESCHERICHIA COLI SS; assay: In vitro antibacterial activity, MIC, BHI agar dilution; conditions: E. coli SS, unit assumed
[24] = system: PSEUDOMONAS AERUGINOSA K799/61; assay: as above; conditions: P. aeruginosa K799/61, unit assumed
[25] = system: STAPHYLOCOCCUS AUREUS ATCC 6538P; assay: as above; conditions: S. aureus ATCC 6538P, 35-37° C., 20 to 24 hours, unit assumed
[26] = system: STREPTOCOCCUS PYOGENES PIU 2548; assay: as above; conditions: S. pyogenes PIU 2548, unit assumed
[27] = system: PSEUDOMONAS AERUGINOSA K799/WT; assay: as above; conditions: P. aeruginosa K799/WT, unit assumed
[28] = system: ENTEROBACTER AEROGENES ATCC 13048; assay: as above; conditions: E. aerogenes ATCC 13048, unit assumed
[29] = system: STAPHYLOCOCCUS AUREUS CMX 642A; assay: as above; conditions: S. aureus CMX 642A, unit assumed
[30] = system: STAPHYLOCOCCUS EPIDERMIDIS 3519; conditions: S. epidermidis 3519; BHI agar; unit assumed
[31] = system: CANDIDA ALBICANS CCH 442; assay: In vitro antibacterial activity, MIC, BHI agar dilution; conditions: C. albicans CCH 442, unit assumed
[32] = system: PSEUDOMONAS CEPACIA 296I; assay: as above; conditions: P. cepacia 296I, unit assumed
[33] = system: MYCOBACTERIUM SMEGMATIS ATCC 114; assay: as above; conditions: M. smegmatis ATCC 114, unit assumed

SMILES: CC[C@H]1OC(=O)[C@H](C)C(=O)[C@H](C)[C@@H](O[C@@H]2O[C@H](C)C[C@H](N(C)C)[C@H]2O)[C@](C)(OC)C[C@@H](C)C2=N[C@H](CN3CCN(C)CC3)CN3C(=O)O[C@@]1(C)[C@H]3[C@H]2C [Example 93]
- MIC [1]: > 100 µg/mL
- MIC [2]: > 100 µg/mL
- MIC [3]: 0.1 µg/mL (≈ 0.133 µM)
- MIC [4]: 0.1 µg/mL (≈ 0.133 µM)
- MIC [5]: 0.39 µg/mL (≈ 0.52 µM)
- MIC [6]: 0.78 µg/mL (≈ 1.04 µM)
- MIC [7]: > 100 µg/mL
- MIC [8]: 0.78 µg/mL (≈ 1.04 µM)
- MIC [9]: 0.02 µg/mL (≈ 0.0267 µM)
- MIC [10]: > 100 µg/mL
- MIC [11]: > 100 µg/mL
- MIC [12]: 0.02 µg/mL (≈ 0.0267 µM)
- MIC [13]: > 100 µg/mL
- MIC [14]: > 100 µg/mL
- MIC [15]: > 100 µg/mL
- MIC [16]: 0.78 µg/mL (≈ 1.04 µM)
- MIC [17]: 100 µg/mL (≈ 133 µM)
- MIC [18]: > 100 µg/mL
- MIC [19]: > 100 µg/mL
- MIC [20]: 0.78 µg/mL (≈ 1.04 µM)
- MIC [21]: > 100 µg/mL
- MIC [22]: > 100 µg/mL
- MIC [23]: 0.78 µg/mL (≈ 1.04 µM)
- MIC [24]: 3.1 µg/mL (≈ 4.13 µM)
- MIC [25]: 0.78 µg/mL (≈ 1.04 µM)
- MIC [26]: 3.1 µg/mL (≈ 4.13 µM)
- MIC [27]: > 100 µg/mL
- MIC [28]: > 100 µg/mL
- MIC [29]: 0.78 µg/mL (≈ 1.04 µM)
- MIC [30]: 0.78 µg/mL (≈ 1.04 µM)
- MIC [31]: > 100 µg/mL
- MIC [32]: > 100 µg/mL
- MIC [33]: 12.5 µg/mL (≈ 16.7 µM)

SMILES: CC[C@H]1OC(=O)[C@H](C)C(=O)[C@H](C)[C@@H](O[C@@H]2O[C@H](C)C[C@H](N(C)C)[C@H]2O)[C@](C)(OC)C[C@@H](C)C2=N[C@H](CN3CCOCC3)CN3C(=O)O[C@@]1(C)[C@H]3[C@H]2C [Example 95]
- MIC [1]: > 100 µg/mL
- MIC [2]: > 100 µg/mL
- MIC [3]: 0.1 µg/mL (≈ 0.136 µM)
- MIC [4]: 0.1 µg/mL (≈ 0.136 µM)
- MIC [5]: 0.2 µg/mL (≈ 0.271 µM)
- MIC [6]: 0.39 µg/mL (≈ 0.529 µM)
- MIC [7]: > 100 µg/mL
- MIC [8]: 0.39 µg/mL (≈ 0.529 µM)
- MIC [9]: 0.05 µg/mL (≈ 0.0678 µM)
- MIC [10]: > 100 µg/mL
- MIC [11]: > 100 µg/mL
- MIC [12]: 0.02 µg/mL (≈ 0.0271 µM)
- MIC [13]: > 100 µg/mL
- MIC [14]: > 100 µg/mL
- MIC [15]: > 100 µg/mL
- MIC [16]: 0.39 µg/mL (≈ 0.529 µM)
- MIC [17]: 50 µg/mL (≈ 67.8 µM)
- MIC [18]: > 100 µg/mL
- MIC [19]: > 100 µg/mL
- MIC [20]: 0.39 µg/mL (≈ 0.529 µM)
- MIC [21]: > 100 µg/mL
- MIC [22]: 100 µg/mL (≈ 136 µM)
- MIC [23]: 0.39 µg/mL (≈ 0.529 µM)
- MIC [24]: 1.56 µg/mL (≈ 2.12 µM)
- MIC [25]: 0.39 µg/mL (≈ 0.529 µM)
- MIC [26]: 0.39 µg/mL (≈ 0.529 µM)
- MIC [27]: > 100 µg/mL
- MIC [28]: > 100 µg/mL
- MIC [29]: 0.39 µg/mL (≈ 0.529 µM)
- MIC [30]: 0.39 µg/mL (≈ 0.529 µM)
- MIC [31]: > 100 µg/mL
- MIC [32]: > 100 µg/mL
- MIC [33]: 3.1 µg/mL (≈ 4.21 µM)

SMILES: CCC1OC(=O)C(C)C(=O)C(C)C(OC2OC(C)CC(N(C)C)C2O)C(C)(OC)CC(C)C2=NC(CN3CCCCC3)CN3C(=O)OC1(C)C3C2C (stereo not drawn) [Example 96]
- MIC [1]: > 100 µg/mL
- MIC [2]: > 100 µg/mL
- MIC [3]: 0.05 µg/mL (≈ 0.068 µM)
- MIC [4]: 0.02 µg/mL (≈ 0.0272 µM)
- MIC [5]: 0.1 µg/mL (≈ 0.136 µM)
- MIC [6]: 0.39 µg/mL (≈ 0.531 µM)
- MIC [7]: > 100 µg/mL
- MIC [8]: 0.39 µg/mL (≈ 0.531 µM)
- MIC [9]: 0.02 µg/mL (≈ 0.0272 µM)
- MIC [10]: > 100 µg/mL
- MIC [11]: 100 µg/mL (≈ 136 µM)
- MIC [12]: 0.01 µg/mL (≈ 0.0136 µM)
- MIC [13]: > 100 µg/mL
- MIC [14]: 100 µg/mL (≈ 136 µM)
- MIC [15]: > 100 µg/mL
- MIC [16]: 0.2 µg/mL (≈ 0.272 µM)
- MIC [17]: 12.5 µg/mL (≈ 17 µM)
- MIC [18]: 25 µg/mL (≈ 34 µM)
- MIC [19]: 50 µg/mL (≈ 68 µM)
- MIC [20]: 0.39 µg/mL (≈ 0.531 µM)
- MIC [21]: > 100 µg/mL
- MIC [22]: 25 µg/mL (≈ 34 µM)
- MIC [23]: 0.39 µg/mL (≈ 0.531 µM)
- MIC [24]: 0.78 µg/mL (≈ 1.06 µM)
- MIC [25]: 0.2 µg/mL (≈ 0.272 µM)
- MIC [26]: 0.39 µg/mL (≈ 0.531 µM)
- MIC [27]: > 100 µg/mL
- MIC [28]: 100 µg/mL (≈ 136 µM)
- MIC [29]: 0.39 µg/mL (≈ 0.531 µM)
- MIC [30]: 0.39 µg/mL (≈ 0.531 µM)
- MIC [31]: > 100 µg/mL
- MIC [32]: > 100 µg/mL
- MIC [33]: 3.1 µg/mL (≈ 4.22 µM)

SMILES: CCC1OC(=O)C(C)C(=O)C(C)C(OC2OC(C)CC(N(C)C)C2O)C(C)(OC)CC(C)C2=NC(CN(C)C)CN3C(=O)OC1(C)C3C2C (stereo not drawn) [Example 97]
- MIC [1]: > 100 µg/mL
- MIC [2]: > 100 µg/mL
- MIC [3]: 0.02 µg/mL (≈ 0.0288 µM)
- MIC [4]: 0.05 µg/mL (≈ 0.072 µM)
- MIC [5]: 0.1 µg/mL (≈ 0.144 µM)
- MIC [6]: 0.78 µg/mL (≈ 1.12 µM)
- MIC [7]: > 100 µg/mL
- MIC [8]: 0.39 µg/mL (≈ 0.561 µM)
- MIC [9]: 0.02 µg/mL (≈ 0.0288 µM)
- MIC [10]: > 100 µg/mL
- MIC [11]: 100 µg/mL (≈ 144 µM)
- MIC [12]: 0.01 µg/mL (≈ 0.0144 µM)
- MIC [13]: > 100 µg/mL
- MIC [14]: > 100 µg/mL
- MIC [15]: > 100 µg/mL
- MIC [16]: 0.2 µg/mL (≈ 0.288 µM)
- MIC [17]: 25 µg/mL (≈ 36 µM)
- MIC [18]: 50 µg/mL (≈ 72 µM)
- MIC [19]: 50 µg/mL (≈ 72 µM)
- MIC [20]: 0.78 µg/mL (≈ 1.12 µM)
- MIC [21]: > 100 µg/mL
- MIC [22]: 50 µg/mL (≈ 72 µM)
- MIC [23]: 0.39 µg/mL (≈ 0.561 µM)
- MIC [24]: 0.78 µg/mL (≈ 1.12 µM)
- MIC [25]: 0.2 µg/mL (≈ 0.288 µM)
- MIC [26]: 0.2 µg/mL (≈ 0.288 µM)
- MIC [27]: > 100 µg/mL
- MIC [28]: 100 µg/mL (≈ 144 µM)
- MIC [29]: 0.2 µg/mL (≈ 0.288 µM)
- MIC [30]: 0.39 µg/mL (≈ 0.561 µM)
- MIC [31]: > 100 µg/mL
- MIC [32]: > 100 µg/mL
- MIC [33]: 12.5 µg/mL (≈ 18 µM)
